Assays:
[1] = test system: Zar1 5′-UTR^ΔrG4 (RNA, single strand) UGAACAAACGAAACACGAAACGCACCC; assay: fluorescence titration (ex 447 nm, em 538 nm); settings: 100 mM KCl; 10 mM Tris-HCl pH 7.4, 25°C; 1 μM BYBX; almost no emission
[2] = test system: Zar1 5′-UTR^ΔrG4 (RNA, single strand) UGAACAAACGAAACACGAAACGCACCC; assay: ITC; settings: 60 mM KCl, 25 mM KH2PO4; pH 7.4, 0.4% DMSO, 25°C; n.d., signal too weak; 100 μM BYBX in syringe
[3] = test system: Zar1 5′-UTR (RNA, G4) UGGGCGGGCGAGGCGCGGGACGCACCC; assay: ITC; settings: 60 mM KCl, 25 mM KH2PO4; pH 7.4, 0.4% DMSO, 25°C; one set of sites; 10 μM RNA, 100 μM BYBX in syringe
[4] = test system: Zar1 5′-UTR (RNA, G4) UGGGCGGGCGAGGCGCGGGACGCACCC; assay: fluorescence titration (ex 447 nm, em 538 nm); settings: 100 mM KCl; 10 mM Tris-HCl pH 7.4, 25°C; 1 μM BYBX, RNA 0-1.9 μM; 50-fold enhancement
[5] = test system: Zar1 5′-UTR^ΔrG4 (RNA, single strand) UGAACAAACGAAACACGAAACGCACCC; assay: CD melting at 262 nm; settings: 20 mM KCl; 10 mM Tris-HCl pH 7.4; 10 μM BYBX, 5 μM RNA; no melting transition seen
[6] = test system: Zar1 5′-UTR (RNA, G4) UGGGCGGGCGAGGCGCGGGACGCACCC; assay: CD melting at 262 nm; settings: 20 mM KCl; 10 mM Tris-HCl pH 7.4; 10 μM BYBX, 5 μM RNA
[7] = test system: Zar1 5′-UTR (RNA, G4) UGGGCGGGCGAGGCGCGGGACGCACCC; assay: CD titration; settings: 100 mM KCl; 10 mM Tris-HCl pH 7.4, 25°C; 5 μM RNA, 5-20 μM BYBX

binding [1]: no
binding [2]: no
KD [3]: 393 nM
binding [4]: yes
ΔTm [5]: 0.06 °C
ΔTm [6]: 11 °C
binding [7]: yes
Structure (SMILES): CN1/C(=C/C2=[N+](CC(N)=O)c3ccc4ccccc4c3C2(C)C)Sc2ccccc21
